Results taken from patent US20120040939A1, “MEDICINAL USE OF 5-BENZYLAMINOSALICYLIC ACID DERIVATIVE OR ITS SALT” (priority 2009, published 2012).

Assays:
Type in all cases: in vivo
Male ICR mice [1] = experiment: Locomotor activity using open field test; settings: 1.25-50 mg/kg oral, twice daily; 1 hour before the test
Method: The locomotor activity using open field test measured to know influence of drug treatment on activity in animals. Male ICR mice weighing 20-23 g of body weight were used throughout the study.
Experimental animals were kept in an animal breeding room with a […] cycle and accommodated by 8 mice per cage supplied freely with water and feeding. The mice consisted of 8 animals per group were randomly allocated to the treatment groups.
(§1) Compound 2 was suspended in 10% lutrol solution and all the suspended solutions were administered orally to the mice twice daily at a volume of 5 ml/kg. The control group was treated only with 10% lutrol solution in the same manner. All the treatment of drugs or vehicle to the animals were given 1 hour before the test (n=8/group).
The open field was consisted of square arena (58 cm×58 cm) surrounded by a 30 cm height wall. […] At the start of each trial, a mouse was placed in a corner of the field and was allowed to freely move the arena and the moving trajectory for 5 min was measured. The behavior of animals was recorded and analyzed using a videotracking software (Etho Vision 3.0, Noldus Information Technology, Leesburg, Va.) attached to the ceiling above the middle of the arena.
The collected data were analyzed by one-way ANOVA followed by Tukey's HSD (Honestly Significant Difference) post hoc comparison.

male C57BL/6 mice [2] = experiment: Stress-induced anxiety (restraint stress), elevated plus maze (EPM); settings: EPM 5 minutes
Method: To evaluate the effect of compound 2 on stress-induced anxiety, we used a restraint stress animal model. Anxiety was evoked by exposing stress that a mice was restrained to be immovable in a narrow space, and whether the compound could show anxiolytic effect after administration the animals.
When experimental animals are exposed to stress, various physiological changes occur, which can be measured through several behavioral tests. In this study, anxiety of experimental animals was evaluated by an elevated plus maze (EPM). EPM apparatus consisted of two open arms, and two closed arms which are horizontally crossed. It is designed that the cross path is located 60 cm above the floor for the animals to feel anxiety. […]
At the day of experiment, animals exposed to restraint stress after animals were acclimatized to testing room over 60 minutes, and then were orally administered with the compound. One hour after administration the oral administration of compound 2 or lutrol, experimental animals were placed at the center of EPM and the animal behaviors were recorded during total 5 minutes using a camera mounted on the ceiling and a computer program (etho vision 3.0 (Noldus Information Technology)). The collected data were expressed as % time spent in open arms and the statistical analysis was done using one-way ANOVA followed by LSD (Least significant difference) post hoc comparisons.

Male ICR mice [3] = experiment: Tail suspension test (TST), antidepressant effect; settings: twice daily, final 4 min of 6 min test, 1 h after treatment
Method: The effectiveness of the compound was evaluated using a tail-suspension test as in vivo method for depression. In this test immobility time of animals typically for 5-10 minutes is recorded using a manual or an automated device.
Male ICR mice weighing 28-30 g of body weight were used throughout the study. Experimental animals were kept in an animal breeding room with a 12 h dark/12 h light cycle and accommodated by 8 mice per cage supplied freely with water and feeding. The mice consisted of 8 animals per group were randomly allocated to the treatment groups.
Compound 2 was suspended in 10% lutrol solution and the all suspended solutions were administered orally to the mice twice daily at a volume of 4 ml/kg. The control group was treated only with 10% lutrol solution in the same manner. All the treatment of drugs or vehicle to the animals were given 1 hour before the test (n=8/group).
This test was evaluated according to the method described in a previous publication [Psycopharmacology 85, 367-370, Steru et al. (1985)]. At the day of experiment, the mice were acclimatized in the testing room over 60 minutes and given with the compound, and then the test was conducted. After 1 h after drug treatment, the mice were taped with experimental adhesive tape, at approximately 1 cm from the tip of the tail. The mice were individually suspended on an experimental shelf about 58 cm above a table top by attaching the adhesive tape at the tip of the tail to the experimental shelf. And after that, total immobility time was measured for 6 min in the absence of noise. The total immobility time was measured during the final 4 min of a 6 min test session and the data were expressed as mean and analyzed by one-way ANOVA followed by Tukey's HSD (Honestly Significant Difference) post hoc comparison.

male C57BL/6 mice [4] = experiment: Forced swimming test, antidepressant effect; settings: final 4 min of 6-min session
Method: Forced swimming test is used to select compounds with therapeutic efficacy for depression. […] The immobility time is counted whenever the animal remained floating passively in the water without struggling except minimal movement to protrude its head above the water surface.
Nine-week-old male C57BL/6 mice weighing 20-23 g of body weight were used through this study. Experimental animals were kept in an animal breeding room with a 12 h dark/12 h light cycle and accommodated by 8 mice per cage supplied freely with water and feeding. The mice consisted of 8 animals per group were randomly allocated to the treatment groups.
as §1
At the day of the experiment, the mice were acclimatized in the testing room over 60 minutes, orally given with the compound 2 or vehicle control, and received the forced swimming test. For the forced swimming test, a mouse was individually forced to swim inside an open glass cylindrical bath with height of 26 cm and diameter of 14 cm filled with water at 24±1° C. up to 16 cm high from the bottom so that the mouse tail could not reach the bottom. One hour after the mouse were orally given compound 2 and control vehicle, then the mice were exposed to forced swimming for 6 min in the water bath and their movement was recorded using a video camera system. The total duration of immobility was measured as a mean during the final 4 min of a 6-min test session and the data were statistically analyzed with one-way ANOVA followed by Tukey's HSD (Honestly Significant Difference) post hoc comparison.

male C57BL/6 mice [5] = experiment: Repeated restraint stress test with forced swim test as index for depression; settings: for decrease of immobility time compared with stressed control group (control 2): forced swim test; for decrease of immobility time compared with unstressed group (control 1): no stress, forced swimming test
Method: To test the efficacy of compounds on a stress-induced depression a restraint stress animal model was used. After evoking depression symptoms in a mouse corresponding to a human depression by exposing a stressed condition that it was placed in a narrow space to be unable to move, whether the compounds have any anti-depression effects were tested after treatment to this animal.
Nine-week-old male C57BL/6 mice weighing 20-23 g of body weight were used through this study. Experimental animals were kept in an animal breeding room with a 12 h dark/12 h light cycle and accommodated by 5-6 mice per cage supplied freely with water and feeding. The mice consisted of 11 animals per group were randomly allocated to the treatment groups.
Compound 2 was suspended in 10% lutrol solution and all the suspended solutions were administered orally to the mice twice daily at a volume of 5 ml/kg. The control group was treated only with 10% lutrol solution in the same manner. All the treatment of drugs or vehicle to the animals were given 1 hour before the test (n=11/group).
Animals were subjected to restraint-stress one hour after compound 2 or 10% lutrol was administered orally. Mice were exposed to restraint stress everyday 2 hr for 14 days and received a forced swim test such as <Example 4> as an index for depression.

Sprague-Dawley (SD) rats = experiment: Water immersion restraint stress (WIRS) gastric damage model; settings: 30 mg/kg, given 1 hour before 10 hours WIRS
Method: The Sprague-Dawley (SD) rats weighing 200 g of body weight were deprived of food for over 24 hours and then were given with the experimental compound. After 1 hour, the rats were placed in a stress cage and immersed into water at 24° C. for 10 hours to induce WIRS
The SD rats weighing 200 g of body weight were deprived of food for 24 h and then were given with 30 mg/kg of compound 2. After 1 hour, the rats were placed in a stress cage and immersed into water for 10 hours. After WIRS for 10 hours, the rats were sacrificed under anesthesia with ether. Each stomach was isolated, soaked and fixed in 10 ml of 2% formalin solution for 10 minutes, and then opened along the greater curvature of the stomach. After spreading the stomach, stress-induced hemorrhagic lesions were examined macroscopically, and the results were shown in FIG. 2.

[6] = 2.5 mg/kg oral BID + restraint stress 2 hr daily for 14 days
[7] = 5 mg/kg oral BID + restraint stress 2 hr daily for 14 days

## O=C(O)c1cc(NCCc2ccc(C(F)(F)F)cc2)ccc1O [compound 2, 2-hydroxy-5-[2-(4-trifluoromethyl-phenyl)-ethylamino]-benzoic acid]
Male ICR mice [1]
  locomotor activity (open field, 5 min): not different among groups
Male C57BL/6 mice [2]; [6]
  % time spent in open arm, increase compared with the stressed group (control 2): 24%
Male C57BL/6 mice [2]; [7]
  % time spent in open arm, increase compared with the stressed group (control 2): 23%
Male ICR mice [3]; 1.25 mg/kg oral
  decrease of total immobility time compared with the control group: 46%
Male ICR mice [3]; 2.5 mg/kg oral
  decrease of total immobility time compared with the control group: 43%
Male ICR mice [3]; 5 mg/kg oral
  decrease of total immobility time compared with the control group: 42%
Male ICR mice [3]; 12.5 mg/kg oral
  decrease of total immobility time compared with the control group: 38%
Male ICR mice [3]; 25 mg/kg oral
  decrease of total immobility time compared with the control group: 54%
Male ICR mice [3]; 50 mg/kg oral
  decrease of total immobility time compared with the control group: 57%
Male C57BL/6 mice [4]; 1.25 mg/kg oral BID
  decrease of immobility time compared with the vehicle control group: 31%
Male C57BL/6 mice [4]; 2.5 mg/kg oral BID
  decrease of immobility time compared with the vehicle control group: 34%
Male C57BL/6 mice [4]; 5 mg/kg oral BID
  decrease of immobility time compared with the vehicle control group: 30%
Male C57BL/6 mice [4]; 12.5 mg/kg oral BID
  decrease of immobility time compared with the vehicle control group: 34%
Male C57BL/6 mice [5]; [6]
  decrease of immobility time compared with stressed control group (control 2): 32%
Male C57BL/6 mice [5]; 2.5 mg/kg oral BID for 2 weeks
  decrease of immobility time compared with unstressed group (control 1): 21%
Male C57BL/6 mice [5]; [7]
  decrease of immobility time compared with stressed control group (control 2): 39%
Male C57BL/6 mice [5]; 5 mg/kg oral BID for 2 weeks
  decrease of immobility time compared with unstressed group (control 1): 26%
Sprague-Dawley (SD) rats
  WIRS-induced gastric lesion index: definitely reduced
